# Data reported in patent US9566262B2, “Itch suppression by fucoxanthin” (THE RITSUMEIKAN TRUST, priority 2015, dated 2017).
# Entries after “also recorded” stand apart in the source; their conditions may differ.
# Legend:
# NC/Nga mice [1] = experiment: Swelling (length) of the auricular lymph node in NC/Nga mice; assay type: in vivo; conditions: topical application for 5 weeks, PiCl-sensitized, vs Vaseline
# Excerpt: NC/Nga mice (5 weeks old, female) were purchased from Japan SLC, Inc. […] On day 12, day 19, day 26 and day 33 after starting application of Vaseline or fucoxanthin, 0.8% picryl chloride (PiCl) was further applied to the back skin of the mice. The behaviors of the mice were observed by video monitoring. On day 34 after starting application of Vaseline or fucoxanthin, bromodeoxyuridine (BrdU, Nacalai Tesque) (0.[…] weight) was intraperitoneally administered to the mice. At 5 weeks after starting application of Vaseline or fucoxanthin, the time each mouse spent for scratching behavior in 10 minutes was measured by video monitoring. Then, the mice were sacrificed and the auricular lymph node, blood and skin were obtained. Serum IgE content was determined by enzyme-linked immunosorbent assay (ELISA) using Mouse IgE Assay Kit (Morinaga Institute of Biological Science, Inc.). […] BrdU uptake was determined by ELISA using Cell Proliferation ELISA, BrdU (Colorimetric) (Roche Diagnostics K.K.). […] Also, serum IgE levels and swelling of the auricular lymph nodes of the mice were determined in the same manner as described in Example 2.
# NC/Nga mice [2] = experiment: Scratching behavior (itch) in PiCl-sensitized NC/Nga dermatitis model mice, video monitoring; assay type: in vivo
# Excerpt: On day 12, day 19, day 26 and day 33 after starting application of Vaseline or fucoxanthin, 0.8% picryl chloride (PiCl) was further applied to the back skin of the mice. The behaviors of the mice were observed by video monitoring. On day 34 after starting application of Vaseline or fucoxanthin, bromodeoxyuridine (BrdU, Nacalai Tesque) ([…]) was intraperitoneally administered to the mice. At 5 weeks after starting application of Vaseline or fucoxanthin, the time each mouse spent for scratching behavior in 10 minutes was measured by video monitoring. Then, the mice were sacrificed and the auricular lymph node, blood and skin were obtained. Serum IgE content was determined by enzyme-linked immunosorbent assay (ELISA) using Mouse IgE Assay Kit (Morinaga Institute of Biological Science, Inc.). […] BrdU uptake was determined by ELISA using Cell Proliferation ELISA, BrdU (Colorimetric) (Roche Diagnostics K.K.).
# In the same manner as described in Example 2, Vaseline, fucoxanthin or tacrolimus and PiCl were applied to NC/Nga mice. At 5 weeks after starting application of fucoxanthin or tacrolimus, the time spent for scratching behavior per 10 minutes in the mice treated with fucoxanthin was measured and compared to that in the mice treated with tacrolimus. […]
# [3] = system: bone marrow-derived mast cells (BMMCs); experiment: Granule formation in BMMCs, tryptase immunostaining; assay type: cell-based, mice; conditions: 10 μM, vs control-treated cells
# Method: Mature mast cells were prepared in the same manner as described in Example 5. The BMMCs obtained were mounted on a glass slide and heat-fixed. The analysis of the preparation was performed according to the method described in Kosaka, T., Fukui, R., Matsui, M. et al. (2014) “RAGE, Receptor of Advanced Glycation Endoproducts, Negatively Regulates Chondrocytes Differentiation.” PLoS ONE 9(10): e108819. Briefly, the cells were reacted with a mouse anti-mast cell tryptase antibody (AB2378, Abcam, Tokyo, Japan) and then reacted with an FITC-conjugated anti-mouse IgG (Santa Cruz Biotechnology, Inc.) and 1 μg/mL DAPI (4′,6-diamino-2-phenylindole dihydrochloride). The fluorescent image was analyzed by EVOS® FL Cell Imaging System (Life Technologies Corp).
# To confirm where the effect of fucoxanthin on granule formation in mast cells is specific rather than common to carotenoids, we compared granule formation between fucoxanthin-treated and astaxanthin-treated BMMCs by immunostaining of tryptase. The immunostaining assay was performed in the same manner as described in Example 6.
# NC/Nga mice [4] = experiment: Toluidine blue staining of skin specimens, number of TB-positive (mast) cells; assay type: in vivo; conditions: 0.1% fucoxanthin in Vaseline, 5 weeks, vs Vaseline-applied mice
# Method: In the same manner as described in Example 2, Vaseline or fucoxanthin and PiCl were applied to NC/Nga mice. At 5 weeks after starting application of Vaseline or fucoxanthin, the mice were sacrificed, the mice skins were fixed with 4% paraformaldehyde and embedded in paraffin. The skin specimen was stained with toluidine blue (TB) (pH=4.1). Imaging of the stained specimen was performed by Virtual Slide System (Olympus).
# NC/Nga mice [5] = experiment: Transdermal water loss (TEWL) in the skin of NC/Nga mice; assay type: in vivo; conditions: topical application plus PiCl, at 5 weeks, vs Vaseline
# Method: Transdermal water loss (TEWL) in the skin of the mice treated with fucoxanthin was also measured and compared with that in the skin of the mice treated with tacrolimus.
# NC/Nga mice [6] = experiment: Clinical symptoms of dermatitis in PiCl-sensitized NC/Nga mice; assay type: in vivo; conditions: topical application plus PiCl, at 5 weeks
# Method: Next, we examined the effects of fucoxanthin and astaxanthin on clinical symptoms of dermatitis in NC/Nga mice. In the same manner as described in Example 2, fucoxanthin or astaxanthin and PiCl were applied to NC/Nga mice. […] In the same manner as described in Example 2, Vaseline, fucoxanthin or tacrolimus and PiCl were applied to NC/Nga mice. […] Also, serum IgE levels and swelling of the auricular lymph nodes of the mice were determined in the same manner as described in Example 2.
# bone marrow cells = experiment: Formation of bone marrow-derived mast cells (BMMCs) from bone marrow cells; assay type: cell-based, mice; conditions: 0.1 μM, 1 μM or 10 μM, vs DMSO
# Method: Bone marrow cells were obtained from 8-week-old female mice and cultured in a medium for conditioning that contained WEHI-3 cells (National Institute of Biomedical Innovation, Health and Nutrition). The culture was performed according to the method described in Yamashita, U. et al. (2005) “Strain difference of murine bone marrow-derived mast cell functions.” J. Leukoc. Biol. 78(3): 605-611. The bone marrow cells were treated with 0.1 μM, 1 μM or 10 μM fucxanthin, or dimethyl sulfoxide (DMSO) as a control. The number of BMMCs containing 10 fields (100 μm×100 μm) per well was counted (FIG. 2C).
compound,measurement,setting,value
CC(=O)O[C@H]1CC(C)(C)C(=C=C/C(C)=C/C=C/C(C)=C/C=C/C=C(C)/C=C/C=C(\C)C(=O)C[C@@]23O[C@]2(C)C[C@@H](O)CC3(C)C)[C@](C)(O)C1 [fucoxanthin],swelling of the auricular lymph node (ear swelling),NC/Nga mice [1],neither ear swelling (FIG. 9A) nor serum IgE level (FIG. 9B) were affected; also recorded: failed to attenuate lymph inflammation; also recorded: not affected
same,time spent for scratching behavior in 10 minutes,"NC/Nga mice [2]; applied daily to back skin (0.1% (w/w) fucoxanthin in Vaseline), PiCl sensitization, at 5 weeks, vs Vaseline-applied mice",attenuated; also recorded: remarkably shorter
same,speed of action on itch compared with tacrolimus,"NC/Nga mice [2]; topical application, PiCl-sensitized NC/Nga mice, scratching time per 10 minutes",faster-acting than tacrolimus
same,granule formation (tryptase-positive cells / immunoreactivity against tryptase),[3],remarkably reduced; also recorded: No tryptase-positive cell; also recorded: suppressed granule formation; also recorded: almost completely inhibited granule formation
same,number of toluidine blue (TB)-positive cells in skin,NC/Nga mice [4],remarkably lower
same,transdermal water loss (TEWL),NC/Nga mice [5],remarkably inhibited moisture evaporation
same,clinical symptoms of dermatitis (AD symptoms),NC/Nga mice [6],remarkably improved; also recorded: almost completely did; also recorded: ameliorated clinical symptom of dermatitis
same,BMMC formation (number of BMMCs),bone marrow cells,suppressed BMMC formation in a dose-dependent manner
